Test results as given in patent publication US10836759B2, “Thiazole derivatives useful as mutant IDH1 inhibitors for treating cancer” (THE UNITED STATES OF AMERICA, AS REPRESENTED BY THE …, priority 2016, dated 2020).

Tests used:
IDH1 R132H = IDH1 R132H (Homo sapiens, UniProt O75874, R132H); test: Enzymatic inhibition assay, mutant IDH1 R132H (NADPH depletion coupled to diaphorase/resazurin); assay type: biochemical; conditions: IDH1 R132H enzyme, IC50 class
Description: (§1) Assays were conducted in a 1536-well black solid-bottom plate with a final assay volume of 9 μL.
Specifically, for IDH1 R132H, 3 μL of enzyme (4 mM β-ME, 0.0005 mg/mL IDH1 R132H, 150 mM NaCl, 20 mM Tris pH 7.5, 10 mM MgCl2, 0.05% BSA) were added to the plate, followed by the addition of 23 nL of test compound in DMSO. The plate was lidded and incubated at room temperature for 30 minutes at which time 3 μL of substrate were added (0.016 mM NADPH, 2 mM α-KG, 150 mM NaCl, 20 mM Tris pH 7.5, 10 mM MgCl2, 0.05% BSA). This reaction was incubated at room-temperature for 60 minutes at which time the detection mix was added (0.06 mg/mL diaphorase, 0.036 mM resazurin, 150 mM NaCl, 20 mM Tris pH 7.5, 10 mM MgCl2, 0.05% BSA). […]

IDH1 R132C = IDH1 R132C (Homo sapiens, UniProt O75874, R132C); test: Enzymatic inhibition assay, mutant IDH1 R132C (NADPH depletion coupled to diaphorase/resazurin); assay type: biochemical; conditions: IDH1 R132C enzyme, IC50 class
Description: as §1
For IDH1 R132C, 3 μL of enzyme (0.00032 mg/mL IDH1 R132H, 10% glycerol, 50 mM potassium phosphate pH 6.5, 5 mM MgCl2, 0.03% BSA) were added to the plate, followed by the addition of 23 nL of test compound in DMSO. The plate was lidded and incubated at room temperature for 30 minutes at which time 3 μL of substrate were added (0.012 mM NADPH, 0.6 mM α-KG, 10% glycerol, 50 mM potassium phosphate pH 6.5, 5 mM MgCl2, 0.03% BSA). […]

Chain of IDH1 R132C (O75874 whole entry R132C): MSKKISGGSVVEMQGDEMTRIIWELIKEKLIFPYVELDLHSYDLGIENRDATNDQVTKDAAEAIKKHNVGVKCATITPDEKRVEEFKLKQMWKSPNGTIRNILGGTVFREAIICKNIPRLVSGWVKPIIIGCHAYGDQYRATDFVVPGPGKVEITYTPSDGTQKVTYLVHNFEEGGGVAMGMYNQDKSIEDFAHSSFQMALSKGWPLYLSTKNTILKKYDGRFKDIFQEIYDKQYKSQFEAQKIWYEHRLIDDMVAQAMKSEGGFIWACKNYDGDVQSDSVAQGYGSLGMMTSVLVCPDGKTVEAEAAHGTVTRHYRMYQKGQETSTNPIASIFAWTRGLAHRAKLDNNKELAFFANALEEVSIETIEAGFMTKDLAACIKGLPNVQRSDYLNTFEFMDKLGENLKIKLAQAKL
Chain of IDH1 R132H (O75874 whole entry R132H): as the sequence (O75874 whole entry R132C) above, with C132H counted along it

Structure (SMILES)	IC50 (IDH1 R132H) [nM]	IC50 (IDH1 R132C) [nM]
CCOc1ccc(C#N)cc1-n1c(C=C(C)C)c(C(=O)N2CC3CCC(C2)N3)cc(-c2nc(-c3ccc(Cl)cc3)cs2)c1=O [Compound 135]	< 300	< 300
CCOc1ccc(C#N)cc1-n1c(C=C(C)C)c(C(=O)N2CCNCC2)cc(-c2nc(-c3ccc(Cl)cc3)cs2)c1=O [Compound 136]	< 300	< 300
CCOc1ccc(Cl)c(-n2c(C=C(C)C)c(C(=O)N3CCNCC3)cc(-c3nc(-c4ccc(OC)nc4)cs3)c2=O)c1 [Compound 137]	< 300	< 300
CCOc1ccc(Cl)c(-n2c(C=C(C)C)c(C(=O)N3CC4CCC(C3)N4)cc(-c3nc(-c4ccc(OC)nc4)cs3)c2=O)c1 [Compound 138]	< 300	< 300
CCOc1ccc(N(CC)CC)cc1-n1c(C=C(C)C)c(C(=O)N2CCNCC2)cc(-c2nc(-c3ccc(Cl)cc3)cs2)c1=O [Compound 145]	< 300	< 300
CCOc1ccc(N(CC)CC)cc1-n1c(C=C(C)C)c(C(=O)N2C[C@H]3CC[C@@H](C2)N3)cc(-c2nc(-c3ccc(Cl)cc3)cs2)c1=O [Compound 146]	< 300	300 to 1000
CC(C)=Cc1c(C(=O)N2CCNCC2)cc(-c2nc(-c3ccc(Cl)cc3)cs2)c(=O)n1-c1cc(N(C)C)ccc1Cl [Compound 147]	< 300	< 300
CNc1ccc(Cl)c(-n2c(C=C(C)C)c(C(=O)N3CCNCC3)cc(-c3nc(-c4ccc(Cl)cc4)cs3)c2=O)c1 [Compound 148]	< 300	< 300
CNc1ccc(Cl)c(-n2c(C=C(C)C)c(C(=O)N3C[C@H]4CC[C@@H](C3)N4)cc(-c3nc(-c4ccc(Cl)cc4)cs3)c2=O)c1 [Compound 149]	< 300	< 300
CC(C)=Cc1c(C(=O)N2C[C@H]3CC[C@@H](C2)N3)cc(-c2nc(-c3ccc(Cl)cc3)cs2)c(=O)n1-c1cc(N(C)C)ccc1Cl [Compound 150]	300 to 1000	< 300

Now from value to compound:

IC50 (IDH1 R132H) [nM]	IC50 (IDH1 R132C) [nM]	Structure (SMILES)
< 300	300 to 1000	CCOc1ccc(Cl)cc1-n1c(C=C(C)C)c(C(=O)N2CCNC[C@@H]2C)cc(-c2nc(-c3ccc(C(F)(F)F)cc3)cs2)c1=O [Compound 128]
< 300	< 300	CCOc1ccc(Cl)cc1-n1c(C=C(C)C)c(C(=O)N2CCNC[C@H]2C)cc(-c2nc(-c3ccc(C(F)(F)F)cc3)cs2)c1=O [Compound 129]
< 300	< 300	CCOc1ccc(Cl)c(-n2c(C=C(C)C)c(C(=O)N3C[C@H]4CC[C@@H](C3)N4)cc(-c3nc(-c4ccc(C(F)F)cc4)cs3)c2=O)c1 [Compound 130]
< 300	< 300	CCc1cccc(CC)c1-n1c(C=C(C)C)c(C(=O)N2CCNC[C@H]2C)cc(-c2nc(-c3ccc(C(F)F)cc3)cs2)c1=O [Compound 131]
< 300	< 300	CCc1cccc(CC)c1-n1c(C=C(C)C)c(C(=O)N2CCNC[C@@H]2C)cc(-c2nc(-c3ccc(C(F)F)cc3)cs2)c1=O [Compound 132]
< 300	< 300	CCc1ccc(Cl)cc1-n1c(C=C(C)C)c(C(=O)N2CC3CCC(C2)N3)cc(-c2nc(-c3ccc(Cl)cc3)cs2)c1=O [Compound 133]
< 300	< 300	CCc1ccc(N(C)C)cc1-n1c(C=C(C)C)c(C(=O)N2CC3CCC(C2)N3)cc(-c2nc(-c3ccc(Cl)cc3)cs2)c1=O [Compound 134]
